Patent US20250289844A1, “TREATMENT OF GM1 DEFICIENCIES” (Seneb BioSciences, Inc., priority 2022, published 2025)

Key:
[1] = system: GM2 synthase deficient mice; test: Minimum effective dose and motor/cognitive function, ganglioside replacement therapy in GM2 synthase deficient mice; assay type: in vivo
Experimental: FIG. 14. Motor and Cognitive function of GM2 synthase deficient mice (heterozygotes; HT and homozygotes; KO; 200-300 day old) treated with either saline (Sal) or GM1 (d18:1, C18:0) (30 mg/Kg, intraperitoneal, once daily) and compared to age matched controlled wild type mice (WT). FIG. 14A. Mouse grip strength, and FIG. 14B. Mouse cognitive function (T-maze), were assessed after 3 weeks of dosing.
FIG. 27. Minimum effective dose. Motor function of GM2 synthase deficient mice (heterozygotes; HT, 200-300 day old) treated with GM1(d18:1, C18:0) (intraperitoneal, once daily). FIG. 27A. Mouse grip strength, FIG. 27B. Adhesive removal, and FIG. 27C. Pole climbing.
(§1) The minimum effective dose of GM1 of the invention was 5 mg/kg (IP, once daily) when administered as ganglioside replacement therapy in ganglioside deficient mice FIG. 27. […] The predicted therapeutic human dose based on allometric scaling of all animal and human data is predicted to be 2-10 mg/Kg administered daily as a parenteral (e.g., subcutaneous, intraperitoneal, intramuscular). In an exemplary embodiment, the therapeutically effective amount is from about 2 to about 10 mg per kg of body weight per dosage. In an exemplary embodiment, the dose of the GM1 formulation is administered parenterally once daily.

[2] = system: GM3 synthase deficient mice; test: Motor and cognitive function, ganglioside replacement therapy in GM3 synthase deficient mice; assay type: in vivo; details: 5 mg/kg IP once daily; GM3 synthase deficient mice (knock-outs and heterozygotes)
Experimental: FIG. 15. Motor and Cognitive function of GM3 synthase deficient mice (heterozygotes; HT and homozygotes; KO; 7-10 months old) treated with either saline (Sal) or GM1 (d18:1, C18:0) (30 mg/Kg, intraperitoneal, once daily for 3 weeks) and compared to age matched controlled wild type mice (WT). FIG. 15A. Grip Duration, FIG. 15B. Beam Transversal, and FIG. 15C. Short-term memory impairment (T-maze).
as §1

[3] = system: Huntington's disease YAC128 mice; test: Motor function (rotarod, narrow beam) in Huntington's disease YAC128 mice; assay type: in vivo; details: Alzet pump, intracerebral ventricular injection
Experimental: FIG. 25. Improvement of motor function in Huntington's disease YAC128 mice after ganglioside replacement therapy using ganglioside compositions of the invention. Mice were administered GM1 using an Alzet pump and intracerebral ventricular injection. FIG. 25A. […] FIG. 25B. […] WT mice treated with GM1 (□), solid line; WT mice treated with cerebral spinal fluid (▪) hashed line; YAC128 Huntington's disease mice treated with cerebral spinal fluid (⋄) hashed line; YAC128 Huntington's disease mice treated with GM1 (♦) solid line.
In still other embodiments, gangliosides and other compounds of the invention can be used as a therapeutic to treat Huntington's disease caused by a deficiency of one or more ganglioside species, e.g., GM3, GM2 and/or GM1, FIGS. 20 and 24 (Di Pardo (2016) Front. Neurosci. 10:457). In some embodiments, the ganglioside deficiency is caused by reduced or missing enzyme activity and/or expression selected from GM3 synthase (ST3Gal5), GM2 synthase (B4GalNT1) and GM1 synthase (B3GalT4), FIG. 24 (Desplats (2007) Neurobiol. Dis. 27(3): 265-277). In another preferred embodiment, the ganglioside deficiency encompasses reduced amounts or missing ganglioside selected from GM3, GM2 and/or GM1. […]

[4] = Formulation / solubility of GM1 in water or buffer; assay type: physicochemical; details: 50 to 500 mg/mL
Experimental: (§2) FIG. 26. Solubility of GM1 of the Invention and Pharmacokinetics of different formulations of GM1 in Sprague Dawley after subcutaneous administration at a dose of 30 mg/Kg. GM1 was formulated at different GM1 concentrations from 50 mg/mL to 500 mg/mL in water or buffer with or without excipients and cosolvents.
(§3) Example 4. Formulation of GM1. Water or buffer solutions were added to GM1 and the suspension stirred until the GM1 was completely dissolved. […] Concentrations of solutions of GM1 prepared by this method included 50 mg/mL, 100 mg/mL, 200 mg/mL, 300 mg/mL, 400 mg/mL and 500 mg/mL. Formulations containing phosphate buffer 0-15 mM (pH 7.0-7.4) were also used and various excipients added including arginine (60-100 mM) and sodium chloride (0-137 mM) (FIG. 26).

[5] = Stability of GM1 formulations at room temperature; assay type: physicochemical; details: water or phosphate buffer 0-15 mM pH 7.0-7.4, arginine 60-100 mM, sodium chloride 0-137 mM
Experimental: as §3

[6] = Pharmacokinetics of formulated GM1 after subcutaneous administration; assay type: in vivo; details: Sprague Dawley rats, 30 mg/Kg, all GM1 concentrations tested
Experimental: as §2
Example 5. Pharmacokinetics of Formulated GM1. The formulated GM1 was administered, subcutaneously, to Sprague Dawley rats and the pharmacokinetics determined (FIG. 26). The plasma GM1 levels returned to normal after 72 hours for all GM1 concentrations tested.

[7] = vendor or literature description; cited from earlier work

appearance of solution [4]: clear, colorless and non-opaque solution
stability of formulations [5]: stable at room temperature for months
time after which plasma GM1 levels returned to normal [6]: 72 h
SMILES: CCCCCCCCCCCCC/C=C/C(O)C(CO[C@@H]1O[C@H](CO)[C@@H](O[C@@H]2O[C@H](CO)[C@H](O[C@@H]3O[C@H](CO)[C@H](O)[C@H](O[C@@H]4O[C@H](CO)[C@H](O)[C@H](O)[C@H]4O)[C@H]3NC(C)=O)[C@H](O[C@]3(C(=O)O)C[C@H](O)[C@@H](NC(C)=O)[C@@H](C(O)C(O)CO)O3)[C@H]2O)[C@H](O)[C@H]1O)NC(=O)CCCCCCCCCCCCCCCCC (stereo partly drawn) [GM1, GM1 (d18:1/C18:0)]
motor and cognitive deficits ([1]; 5 mg/kg IP once daily, GM2 synthase deficient mice (knock-outs and heterozygotes)): reversing motor and cognitive deficits
minimum effective dose ([1]; IP, once daily, ganglioside replacement therapy in ganglioside deficient mice (FIG. 27: grip strength, adhesive removal, pole climbing)): 5 mg/kg
motor and cognitive deficits [2]: reversing motor and cognitive deficits
rotarod motor function ([3]; FIG. 25A): Improved rotarod motor function
narrow beam motor function ([3]; FIG. 25B): Improved narrow beam motor function
solubility in water [7]: effectively no solubility in water
